{"source": "paper PMC9556364", "about": "“The effect of rifampin on the pharmacokinetics of famitinib in healthy subjects” (Cancer Chemotherapy and Pharmacology, 2022)", "key": {"[1]": {"details": "cited from earlier work; for Decrease of AUC when administered simultaneously with rifampin / Decrease of Cmax when administered simultaneously with rifampin: ref 21 (imitinib), 22 (gefitinib), 23 (erlotinib), 24 (afatinib)"}, "[2]": {"molecular_target": "T1, P-gp (Homo sapiens, UniProt P08183)", "T1 construct": "endogenous in cells; host or cells: Caco-2", "T1 sequence (P08183 whole entry)": "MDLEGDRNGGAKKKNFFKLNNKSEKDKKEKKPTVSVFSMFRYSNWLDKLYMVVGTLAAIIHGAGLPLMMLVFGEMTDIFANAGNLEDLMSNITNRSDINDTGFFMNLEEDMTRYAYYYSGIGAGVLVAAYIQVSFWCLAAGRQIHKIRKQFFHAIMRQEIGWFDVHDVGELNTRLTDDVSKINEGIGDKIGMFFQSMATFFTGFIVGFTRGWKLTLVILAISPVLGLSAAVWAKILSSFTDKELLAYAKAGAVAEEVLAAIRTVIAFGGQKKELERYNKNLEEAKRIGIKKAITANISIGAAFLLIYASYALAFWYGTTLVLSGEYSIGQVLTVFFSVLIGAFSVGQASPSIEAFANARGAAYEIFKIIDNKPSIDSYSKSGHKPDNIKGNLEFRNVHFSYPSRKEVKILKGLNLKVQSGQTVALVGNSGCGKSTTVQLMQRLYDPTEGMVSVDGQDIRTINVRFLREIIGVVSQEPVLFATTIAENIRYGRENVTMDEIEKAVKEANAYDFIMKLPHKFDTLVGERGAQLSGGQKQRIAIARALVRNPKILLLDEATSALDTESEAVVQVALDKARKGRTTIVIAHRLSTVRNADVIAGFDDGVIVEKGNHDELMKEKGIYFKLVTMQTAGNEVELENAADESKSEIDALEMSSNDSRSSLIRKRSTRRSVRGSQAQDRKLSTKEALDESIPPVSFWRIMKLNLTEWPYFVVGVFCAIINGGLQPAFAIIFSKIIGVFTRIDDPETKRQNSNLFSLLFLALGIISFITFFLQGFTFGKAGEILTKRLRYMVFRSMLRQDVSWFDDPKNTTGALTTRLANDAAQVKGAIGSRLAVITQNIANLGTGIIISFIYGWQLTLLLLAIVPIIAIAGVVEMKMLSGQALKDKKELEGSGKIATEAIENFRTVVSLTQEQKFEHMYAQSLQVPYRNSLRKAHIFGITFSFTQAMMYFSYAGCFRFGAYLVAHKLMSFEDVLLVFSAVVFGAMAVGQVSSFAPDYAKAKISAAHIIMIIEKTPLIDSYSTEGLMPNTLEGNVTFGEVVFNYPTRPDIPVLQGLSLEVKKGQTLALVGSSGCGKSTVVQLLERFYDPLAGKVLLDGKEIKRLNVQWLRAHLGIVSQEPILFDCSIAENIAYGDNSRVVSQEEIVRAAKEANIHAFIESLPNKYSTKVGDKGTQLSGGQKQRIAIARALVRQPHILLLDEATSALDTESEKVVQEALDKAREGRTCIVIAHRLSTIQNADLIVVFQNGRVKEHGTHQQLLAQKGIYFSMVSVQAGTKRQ", "test": "In vitro P-gp interaction study in Caco-2 cells", "assay_type": "in vitro ADME", "text": "Except as a strong CYP3A inducer, rifampin is also recognized as a substrate and inducer of permeability glycoprotein (P-gp), an important ATP-binding cassette transporter, upon multiple dosing. […] Therefore, the interaction between famitinib and P-gp as well as OATP needs to be considered, to evaluate whether the changes of famitinib exposure caused by the strong CYP3A inducer are affected."}, "[3]": {"system": "CYP3A4", "design": "method as in PMID 23126373", "details": "recombinant human isozymes, microsomal chemical inhibition; cited from earlier work"}, "[4]": {"test": "Safety and tolerability (treatment emergent adverse events, CTCAE v5.0) in the DDI study", "details": "for Subjects with treatment-related TEAEs: famitinib alone Days 1–9 (1/21), rifampin alone Days 10–15 (3/21), combination Days 16–23 (4/20)", "procedure": "Safety and tolerability were evaluated by monitoring vital signs, physical examination, laboratory tests, electrocardiogram (ECG) and adverse events (AEs). Vital signs, including body temperature, blood pressure (BP) and heart rate, were measured and ECG were performed during baseline period, before drug administration and at 4, 24, 48, 192 h after famitinib administration. Clinical laboratory tests were conducted at screening, day 9, 15, and prior to discharge. AEs, including all subjective symptoms reported by subjects and objective signs observed by clinical investigators, were collected after dosing throughout the study.\nSafety parameters of the safety analysis sets were summarized using descriptive statistics. AEs were graded according to Common Terminology Criteria for Adverse Events (CTCAE, version 5.0) and coded using Medical Dictionary for Regulatory Activities (MedDRA, version 19.0) System Organ Class (SOC) and Preferred Terms (PT)."}, "[5]": {"test": "Drug-drug interaction study: plasma pharmacokinetics of single oral famitinib 25 mg alone and with steady-state rifampin 600 mg once daily (LC-MS/MS, noncompartmental analysis)", "details": "for CL/F / AUC(0-t) / AUC(0-inf) / Cmax / k el: geometric mean (geometric CV, %); for AUC(0-t): AUC0–t; for AUC(0-inf): AUC0–∞; for Tmax: median (min, max); for k el: λz", "procedure": "The DDI study was an open-label, self-contrast study comprising the following two periods: period 1 (Days 1–9), administration of a single oral dose of famitinib 25 mg alone in the morning of study day 1; period 2 (Days 10–23), repeated administration of oral rifampin 600 mg once daily for 14 days in the morning of days 10–23, and co-administration of a single dose of famitinib 25 mg on Day 16. […] In the two periods, oral doses of famitinib were administered after an overnight fast (at least 10 h) with 240 mL room-temperature water. Subjects were forbidden to drink water within 1 h before and after taking famitinib, and the lunch and dinner were provided at 4 h and 8 h,, respectively, post-drug administration (Day 1, 16). In the second period, subjects received rifampin in the fasting state with 240 mL water and had regular meals 1 h after the dose. Cigarettes, caffeinated drinks and alcoholic products were prohibited during the whole trial period, and when the subjects stayed in the study center (Days 1–4, 10–23), the only food permitted was prepared and provided at predetermined times by the researchers.\nSamples were centrifuged within 1 h at 1500xg for 10 min at 4℃ to separate the plasma, which was divided into two aliquots (drug monitoring at least 800ul and backup) and stored at – 80 °Cuntil analysis.\nPlasma concentrations of famitinib were analysed using a validated liquid chromatography-tandem mass spectrometry (LC–MS/MS) method [9, 15] at Frontage Laboratories Co., Ltd (Shanghai, China). The calibration curve for famitinib covered ranges of 0.050-100 ng/ml. The low limit of qualification (LLOQ) was 0.050 ng/ml.\nPharmacokinetic (PK) parameters for famitinib in plasma were estimated by noncompartmental analysis using Phoenix WinNonlin (version 7.0, Pharsight Corporation, St Louis, MO, USA). The primary endpoints were the maximum plasma famitinib concentration (Cmax), the area under the plasma concentration–time curve from time 0 to the last measured time point (AUC0–t), and the area under the plasma concentration–time curve from time 0 to infinity (AUC0–∞). The secondary PK parameters included time to Cmax (Tmax) and the elimination half-life (T1/2), the terminal exponential rate constant (λz), the apparent total body clearance (CL/F). Cmax and Tmax were observed directly from the original concentration–time data.\nAll subjects who received the study drug and for whom at least one PK parameter data was available were included in the PK analysis sets. The safety analysis sets included subjects who received at least one dose of famitinib or rifampin. Statistical analysis was performed using SAS 9.4 (SAS Inc., Cary, NC, USA). […] The measurement data were expressed as mean ± standard deviation (SD), and categorical variables were described by the percentage."}, "[6]": {"details": "cited from earlier work"}, "[7]": {"details": "famitinib 25 mg with rifampin 600 mg vs alone"}, "[8]": {"details": "famitinib + rifampin period, individual subjects, LLOQ 0.050"}, "[9]": {"details": "famitinib alone period, individual subjects"}, "[10]": {"details": "male, human, plasma, po, 25 mg, famitinib 25 mg + rifampin, N = 20"}, "[11]": {"details": "male, human, plasma, po, 25 mg, famitinib 25 mg alone, N = 21"}, "[12]": {"details": "healthy volunteers, vs sunitinib alone"}}, "note": "“And” between values parts separate entries of the source, which are not always exact repeats. Identical values can stand only once.", "data": [{"smiles": "CN(C)C/C=C/C(=O)Nc1cc2c(Nc3ccc(F)c(Cl)c3)ncnc2cc1O[C@H]1CCOC1", "note": "[afatinib]", "values": [{"measurement": "Decrease of AUC when administered simultaneously with rifampin", "setting": "[1]", "result": 34, "unit": "%"}, {"measurement": "Decrease of Cmax when administered simultaneously with rifampin", "setting": "[1]", "result": 22, "unit": "%"}]}, {"smiles": "C#Cc1cccc(Nc2ncnc3cc(OCCOC)c(OCCOC)cc23)c1", "note": "[erlotinib]", "values": [{"measurement": "Decrease of AUC when administered simultaneously with rifampin", "setting": "[1]", "result": 69, "unit": "%"}, {"measurement": "Decrease of Cmax when administered simultaneously with rifampin", "setting": "[1]", "result": 39, "unit": "%"}]}, {"smiles": "CCN(CC)CCN1CCc2[nH]c(/C=C3\\C(=O)Nc4ccc(F)cc43)c(C)c2C1=O", "note": "[famitinib, Famitinib malate]", "values": [{"measurement": "P-gp substrate, inducer or inhibitor", "setting": "[2]", "result": "neither a substrate, an inducer or inhibitor"}, {"measurement": "Pathway most important to metabolic clearance", "setting": "[3]", "result": "CYP3A4-mediated N-desethylation is most important"}, {"measurement": "Subjects with treatment-related TEAEs", "setting": "[4]", "result": 4.8, "unit": "%"}, {"measurement": "Tolerability", "setting": "[4]; single dose famitinib 25 mg, alone and in combination with multiple doses of rifampin", "result": "well tolerated"}, {"measurement": "Subjects reporting treatment emergent adverse events (TEAEs)", "setting": "[4]; whole study, 8/21 subjects, all grade 1–2", "result": 38.1, "unit": "%"}, {"measurement": "CL/F", "setting": "[5]; famitinib 25 mg + rifampin, N = 20", "result": "61.4 (16.5) L/h"}, {"measurement": "CL/F", "setting": "[5]; famitinib 25 mg alone, N = 21", "result": "18.9 (18.0) L/h"}, {"measurement": "Decrease of geometric mean AUC0–t in the presence of rifampin", "setting": "[5]; [7]", "result": 69, "unit": "%"}, {"measurement": "Decrease of geometric mean AUC0–∞ in the presence of rifampin", "setting": "[5]; [7]", "result": 69, "unit": "%"}, {"measurement": "Decrease of geometric mean Cmax in the presence of rifampin", "setting": "[5]; [7]", "result": 48, "unit": "%"}, {"measurement": "Plasma concentration of famitinib, 144h", "setting": "[5]; [8]", "result": "BLQ<0.050 ng / mL"}, {"measurement": "Plasma concentration of famitinib, 192h", "setting": "[5]; [8]", "result": "BLQ<0.050 ng / mL"}, {"measurement": "Plasma concentration of famitinib, before dosing", "setting": "[5]; [8]", "result": "BLQ<0.050 ng / mL"}, {"measurement": "Plasma concentration of famitinib, 1h", "setting": "[5]; [9]", "result": "12.172 ng/mL and 10.070 ng/mL and 23.342 ng/mL and 11.725 ng/mL and 7.749 ng/mL and 13.952 ng/mL and 8.453 ng/mL and 16.495 ng/mL and 11.559 ng/mL and 9.713 ng/mL and 14.845 ng/mL and 9.794 ng/mL and 13.641 ng/mL and 7.456 ng/mL and 5.075 ng/mL"}, {"measurement": "Plasma concentration of famitinib, 2h", "setting": "[5]; [9]", "result": "19.290 ng/mL and 11.263 ng/mL and 27.171 ng/mL and 17.301 ng/mL and 11.179 ng/mL and 19.862 ng/mL and 16.456 ng/mL and 17.403 ng/mL and 19.212 ng/mL and 16.738 ng/mL and 25.161 ng/mL and 11.223 ng/mL and 13.668 ng/mL and 15.742 ng/mL and 7.198 ng/mL"}, {"measurement": "Plasma concentration of famitinib, 3h", "setting": "[5]; [9]", "result": "24.870 ng/mL and 24.032 ng/mL and 35.652 ng/mL and 17.196 ng/mL and 13.891 ng/mL and 21.638 ng/mL and 20.909 ng/mL and 26.523 ng/mL and 20.328 ng/mL and 19.378 ng/mL and 25.658 ng/mL and 13.587 ng/mL and 23.069 ng/mL and 22.375 ng/mL and 13.449 ng/mL"}, {"measurement": "Plasma concentration of famitinib, 4h", "setting": "[5]; [9]", "result": "28.028 ng/mL and 28.292 ng/mL and 40.156 ng/mL and 20.043 ng/mL and 16.081 ng/mL and 19.854 ng/mL and 21.159 ng/mL and 24.187 ng/mL and 24.994 ng/mL and 22.750 ng/mL and 36.134 ng/mL and 11.368 ng/mL and 18.316 ng/mL and 23.577 ng/mL and 15.599 ng/mL"}, {"measurement": "Plasma concentration of famitinib, 5h", "setting": "[5]; [9]", "result": "34.268 ng/mL and 39.992 ng/mL and 39.262 ng/mL and 34.731 ng/mL and 23.153 ng/mL and 38.641 ng/mL and 37.246 ng/mL and 34.840 ng/mL and 39.863 ng/mL and 36.023 ng/mL and 38.105 ng/mL and 23.878 ng/mL and 27.444 ng/mL and 47.892 ng/mL"}, {"measurement": "Plasma concentration of famitinib, 6h", "setting": "[5]; [9]", "result": "43.837 ng/mL and 41.218 ng/mL and 38.122 ng/mL and 30.476 ng/mL and 37.003 ng/mL and 33.261 ng/mL and 32.099 ng/mL and 44.461 ng/mL and 40.451 ng/mL and 44.411 ng/mL and 30.717 ng/mL and 31.790 ng/mL and 38.642 ng/mL"}, {"measurement": "Plasma concentration of famitinib, 8h", "setting": "[5]; [9]", "result": "36.756 ng/mL and 37.274 ng/mL and 37.931 ng/mL and 31.453 ng/mL and 34.655 ng/mL and 28.227 ng/mL and 26.193 ng/mL and 38.443 ng/mL and 33.433 ng/mL and 40.722 ng/mL and 30.892 ng/mL and 27.531 ng/mL and 41.552 ng/mL"}, {"measurement": "Plasma concentration of famitinib, before dosing", "setting": "[5]; famitinib alone period, individual subjects, LLOQ 0.050", "result": "BLQ<0.050 ng / mL"}, {"measurement": "concentration at 6 h", "setting": "[5]; human, plasma, oral, 25 mg, Plasma concentration of famitinib, famitinib alone period, individual subjects", "result": 44.3, "unit": "ng/mL"}, {"measurement": "concentration at 8 h", "setting": "[5]; human, plasma, oral, 25 mg, Plasma concentration of famitinib, 8h, famitinib alone period, individual subjects", "result": 42.1, "unit": "ng/mL"}, {"measurement": "concentration at 12 h", "setting": "[5]; human, plasma, oral, 25 mg, Plasma concentration of famitinib, 12h, famitinib alone period, individual subjects", "result": 22.5, "unit": "ng/mL"}, {"measurement": "concentration at 24 h", "setting": "[5]; human, plasma, oral, 25 mg, Plasma concentration of famitinib, 24h, famitinib alone period, individual subjects", "result": 14, "unit": "ng/mL"}, {"measurement": "concentration at 48 h", "setting": "[5]; human, plasma, oral, 25 mg, Plasma concentration of famitinib, 48h, famitinib alone period, individual subjects", "result": 7.26, "unit": "ng/mL"}, {"measurement": "concentration at 6 h", "setting": "[5]; human, plasma, oral, Plasma concentration of famitinib, famitinib + rifampin period, individual subjects", "result": 22, "unit": "ng/mL"}, {"measurement": "concentration at 144 h", "setting": "[5]; human, plasma, oral, Plasma concentration of famitinib, 144h, famitinib + rifampin period, individual subjects, LLOQ 0.050", "result": 0.063, "unit": "ng/mL"}, {"measurement": "half-life", "setting": "[5]; male, human, plasma, po, 25 mg", "result": 33.9, "unit": "h"}, {"measurement": "AUC(0-t)", "setting": "[5]; [10]", "result": 405, "unit": "ng·h/mL"}, {"measurement": "AUC(0-t)", "setting": "[5]; [11]", "result": 1300, "unit": "ng·h/mL"}, {"measurement": "AUC(0-inf)", "setting": "[5]; [10]", "result": 407, "unit": "ng·h/mL"}, {"measurement": "AUC(0-inf)", "setting": "[5]; [11]", "result": 1320, "unit": "ng·h/mL"}, {"measurement": "Cmax", "setting": "[5]; male, human, plasma, po, 25 mg, famitinib 25 mg + steady-state rifampin 600 mg once daily, N = 20", "result": 20.1, "unit": "ng/mL"}, {"measurement": "Cmax", "setting": "[5]; male, human, plasma, po, 25 mg, famitinib 25 mg single oral dose alone, N = 21", "result": 38.7, "unit": "ng/mL"}, {"measurement": "Tmax", "setting": "[5]; [10]", "result": 5.5, "unit": "h"}, {"measurement": "Tmax", "setting": "[5]; [11]", "result": 6, "unit": "h"}, {"measurement": "k el", "setting": "[5]; [10]", "result": "1.08e-05", "unit": "s⁻¹"}, {"measurement": "k el", "setting": "[5]; [11]", "result": "5.83e-06", "unit": "s⁻¹"}, {"measurement": "Mean time to maximum concentration (Tmax)", "setting": "[6]; 25 mg famitinib, healthy subjects", "result": "5.9 ± 3.8", "unit": "h"}, {"measurement": "Time of peak concentration (Cmax) after a single oral administration", "setting": "[6]; 4–27 mg famitinib, cancer patients", "result": "3.3 to 5.3", "unit": "h"}, {"measurement": "Effect of food on the pharmacokinetics", "setting": "[6]", "result": "minimal effect"}, {"measurement": "Accumulation ratio (Day28/Day1) of AUC0–24 h", "setting": "[6]; continuous dosing", "result": 2.53}, {"measurement": "Accumulation ratio (Day28/Day1) of Cmax", "setting": "[6]; continuous dosing", "result": 2.15}, {"measurement": "Elimination via biliary-fecal route", "setting": "[6]; human", "result": "approximately 56.3 % of the administered dose"}]}, {"smiles": "COc1cc2ncnc(Nc3ccc(F)c(Cl)c3)c2cc1OCCCN1CCOCC1", "note": "[gefitinib]", "values": [{"measurement": "Decrease of AUC when administered simultaneously with rifampin", "setting": "[1]", "result": 83, "unit": "%"}, {"measurement": "Decrease of Cmax when administered simultaneously with rifampin", "setting": "[1]", "result": 65, "unit": "%"}]}, {"smiles": "Cc1ccc(NC(=O)c2ccc(CN3CCN(C)CC3)cc2)cc1Nc1nccc(-c2cccnc2)n1", "note": "[imitinib]", "values": [{"measurement": "Decrease of AUC when administered simultaneously with rifampin", "setting": "[1]", "result": 74, "unit": "%"}, {"measurement": "Decrease of Cmax when administered simultaneously with rifampin", "setting": "[1]", "result": 54, "unit": "%"}]}, {"smiles": "CO[C@H]1/C=C/O[C@@]2(C)Oc3c(C)c(O)c4c(O)c(c(/C=N/N5CCN(C)CC5)c(O)c4c3C2=O)NC(=O)/C(C)=C\\C=C\\[C@H](C)[C@H](O)[C@@H](C)[C@@H](O)[C@@H](C)[C@H](OC(C)=O)[C@@H]1C", "note": "[rifampin, Rifampicin]", "values": [{"measurement": "Subjects with treatment-related TEAEs", "setting": "[4]", "result": 14.3, "unit": "%"}]}, {"smiles": "CCN(CC)CCNC(=O)c1c(C)[nH]c(/C=C2\\C(=O)Nc3ccc(F)cc32)c1C", "note": "[sunitinib]", "values": [{"measurement": "Fold reduction in AUC on coadministration with rifampin", "setting": "[1]; [12]", "result": 4.8, "unit": "fold"}, {"measurement": "Fold reduction in Cmax on coadministration with rifampin", "setting": "[1]; [12]", "result": 2.3, "unit": "fold"}]}]}
